Consider 17 compounds from patent US20100056522A1, “INTRAOCULAR PRESSURE-LOWERING AGENT COMPRISING COMPOUND HAVING HISTONE DEACETYLASE INHIBITOR EFFECT AS ACTIVE INGREDIENT” (Santen Pharmaceutical Co., Ltd., priority 2007, published 2010).

Structures are written as SMILES.

Assay [1] deals with HDAC (HeLa nuclear extract). Briefly: Test for evaluation of an HDAC inhibitory effect (HDAC Fluorimetric Assay/Drug Discovery Kit, Biomol). It is filed as biochemical. The note with it: final concentration of test compound 30 μM, rates of more than 100% are shown as 100%. The protocol: Using HDAC Fluorimetric Assay/Drug Discovery Kit (manufactured by Biomol), an HDAC inhibitory effect of the present compounds was measured according to the protocol included with the kit. The kit contains Buffer, HeLa nuclear extract (includes an HDAC), Substrate, Developer and Trichostatin A (an HDAC inhibitor).
A test compound was dissolved in dimethyl sulfoxide, whereby a 2 mg/mL solution was prepared. Then, the resulting solution was diluted with Buffer containing 5% dimethyl sulfoxide, whereby a 150 μM test compound solution was prepared.
1) To a 384-well culture plate, the test compound solution was added in an amount of 2 μL per well.
2) HeLa nuclear extract was diluted 30-fold with Buffer. The resulting solution was added in an amount of 3 μL per well and then, incubation was performed at 37° C. for 2 hours.
3) Substrate was diluted 500-fold with Buffer. The resulting solution was added in an amount of 5 μL per well (the final concentration of the test compound was 30 μM) and then, incubation was performed at 37° C. for 10 minutes.
4) Developer was diluted 20-fold with Buffer and Trichostatin A (2 μM) was added to it. The resulting solution was added in an amount of 10 μL per well and then, incubation was performed at room temperature for 15 minutes.
5) The fluorescence intensity of each well was measured using multilabel counter ARVO (manufactured by Wallac) with excitation at 360 nm and emission at 460 nm.
6) A control data was obtained from the same experiment except that Buffer containing 5% DMSO was added instead of the test compound solution as the above-mentioned procedure from 1) to 5).
7) A blank data was obtained from the same experiment except that Buffer containing 5% DMSO was added instead of the test compound solution and that Buffer was added instead of Hela nuclear extract as the above-mentioned procedure from 1) to 5).
Enzyme inhibitory rate (%) was calculated using the following equation.
(Enzyme Inhibitory Rate(%))=100×[1−{(Fluorescence Intensity of Test Compound Solution)−(Florescence Intensity of Blank)}/{(Florescence Intensity of Control)−(Florescence Intensity of Blank)}]

Assay [2] concerns TM-1 cells (human trabecular meshwork cell line). The assay is described as follows: Test for evaluation of effect of morphological change on trabecular meshwork cells (cell shape index). It is filed as cell-based. The following applies: 10 μM, 24 hours, control CSI 0.679, lower CSI indicates greater morphological change. The protocol:
As a method for evaluating a cellular morphological change, an evaluation system using the cell shape index (hereinafter referred to as “CSI”) as an index has been reported in The Journal of Clinical Investigation, 103, 1141-1150 (1999). Therefore, according to the method described in the above document, an effect of morphological change by the present compounds on trabecular meshwork cells was evaluated.
A human trabecular meshwork cell line (hereinafter referred to as “TM-1 cells”) reported in Investigative Opthalmology & Visual Science, 43, 151-161 (2002) was used.
Culture medium 1: A reagent was prepared by adding fetal bovine serum (10%), L-glutamine (2 mM), amphotericin B (2.5 μg/mL), and gentamicin (25 μg/mL) to Dulbecco's Modified Eagle Medium (hereinafter referred to as “D-MEM”).
Culture medium 2: Fetal bovine serum (3%), L-glutamine (2 mM), amphotericin B (2.5 μg/mL), and gentamicin (25 μg/mL) were added to D-MEM.
Cell staining liquid: A mixed liquid of Calcein-AM (16 μM) and Hoechst 33342 (40 μM) was prepared by diluting a Calcein-AM solution (cytoplasmic staining reagent, manufactured by Dojindo Laboratories) and a Hoechst 33342 solution (nuclear staining reagent, manufactured by Dojindo Laboratories) with D-MEM containing L-glutamine (2 mM), amphotericin B (2.5 μg/mL), and gentamicin (25 μg/mL).
TM-1 cells subcultured at 37° C. in a 8% carbon dioxide gas atmosphere were treated with a trypsin/EDTA solution (0.05% trypsin and 0.53 mM tetrasodium ethylenediaminetetraacetate) at 24 hours before performing a drug treatment mentioned below and seeded on a 96-well culture plate. The culture medium 1 was used for the subculture of the cells. The culture medium 2 was used for the cell culture after seeding the cells on the plate.
A test compound was dissolved in dimethyl sulfoxide, whereby a 5 mM solution was prepared. Then, the resulting solution was diluted with the culture medium 2, whereby a 200 μM test compound solution was prepared.
It has been reported that Y-27632 which is a Rho kinase inhibitor induces a morphological change in trabecular meshwork cells in Investigative Opthalmology & Visual Science, 42, 137-144 (2001). Therefore, Y-27632 (produced according to the method described in WO 90/05723) was used as a positive control, and dissolved in dimethyl sulfoxide in the same manner as the test compound, whereby a 5 mM solution was prepared, and then, the resulting solution was diluted with the culture medium 2, whereby a 200 μM positive control compound solution was prepared.
1) To a 96-well culture plate, a solution of TM-1 cells adjusted to a cell density of […] was added in an amount of 95 μL (1.5×10^4 cells) per well.
2) Incubation was performed at 37° C. in a 8% carbon dioxide gas atmosphere for 24 hours.
3) The test compound solution or positive control compound solution was added in an amount of 5 μL per well (the final concentration of the test compound or positive control compound was 10 μM). As a control, the culture medium 2 containing dimethyl sulfoxide (4%) was added in an amount of 5 μL per well.
4) Incubation was performed at 37° C. in a 8% carbon dioxide gas atmosphere for 24 hours.
5) The cell staining liquid was added in an amount of 10 μL per well.
6) Incubation was performed at 37° C. in a 8% carbon dioxide gas atmosphere for 1 hour to stain the cells.
7) A 37% formaldehyde solution was added in an amount of 10 μL per well.
8) Incubation was performed at room temperature for 1 hour to fix the cells.
9) Washing with phosphate-buffered saline was performed.
10) Using Array Scan Vti HCS reader (manufactured by Cellomics), images of stained cells magnified with a 20-fold objective lens were captured in 80 fields (10 fields×8 wells) per test compound addition group.
11) CSI was calculated for each cell and an average value was obtained for each test compound addition group.
CSI was calculated using the following equation.
CSI=4π×(Cell Area)/(Cell Perimeter)^2

`O=C(/C=C/c1cccc(C(=O)NO)c1)NO` [CBHA, N-Hydroxy-3-[3-hydroxyamino-3-oxo-1-propenyl]benzamide, reference compound]: the “Enzyme Inhibitory Rate (%)” value in assay [1] is 99%. Moreover, the CSI in assay [2] is listed as 0.545.
For `CN(C)CCCN(Cc1ccc(C(=O)Nc2ccccc2N)nc1)C(=O)Nc1ccc2c(c1)OCCO2` [Compound 1-2, N-(2-Aminophenyl)-5-[3-(2,3-dihydrobenzo[1,4]dioxin-6-yl)-1-(3-dimethylaminopropyl)ureidomethyl]pyridine-2-carboxylic acid amide], the “Enzyme Inhibitory Rate (%)” value in assay [1] was 100%. In assay [2], this compound showed a CSI of 0.516.
The corresponding values for `Nc1ccccc1NC(=O)c1ccc(CN(CCCN2CCOCC2)C(=O)NCCc2ccccc2)cn1` [Compound 1-3, N-(2-Aminophenyl)-5-[1-[3-(morpholin-4-yl)propyl]-3-phenethylureidomethyl]pyridine-2-carboxylic acid amide] are 100% and 0.569.
Take `CN(C)CCCN(Cc1ccc(C(=O)Nc2ccccc2N)nc1)C(=O)Nc1ccc(F)c(F)c1` [Compound 1-4, N-(2-Aminophenyl)-5-[3-(3,4-difluorophenyl)-1-(3-dimethylaminopropyl)ureidomethyl]pyridine-2-carboxylic acid amide]: the “Enzyme Inhibitory Rate (%)” value in assay [1] came to 100%. Besides, the CSI in assay [2] was 0.556.
Consider `COc1ccc(NC(=O)N(CCCN(C)C)Cc2ccc(C(=O)Nc3ccccc3N)nc2)cc1` [Compound 1-6, N-(2-Aminophenyl)-5-[1-(3-dimethylaminopropyl)-3-(4-methoxyphenyl)ureidomethyl]pyridine-2-carboxylic acid amide], for which, in assay [1], the “Enzyme Inhibitory Rate (%)” value stood at 100%. In assay [2], this compound showed a CSI of 0.549.
In the same order, the values of `Nc1ccccc1NC(=O)c1ccc(CN(CCCN2CCOCC2)C(=O)Nc2cccnc2)cn1` [Compound 1-8, N-(2-Aminophenyl)-5-[1-[3-(morpholin-4-yl)propyl]-3-(pyridin-3-yl)ureidomethyl]pyridine-2-carboxylic acid amide] are 96% and 0.538.
In the same order, the values of `CN(C)CCCN(Cc1ccc(C(=O)Nc2ccccc2N)nc1)C(=O)Nc1cccc(F)c1` [Compound 1-10, N-(2-Aminophenyl)-5-[1-(3-dimethylaminopropyl)-3-(3-fluorophenyl)ureidomethyl]pyridine-2-carboxylic acid amide] are 98% and 0.528.
In the same order, the values of `Cc1ccc(NC(=O)N(CCCN(C)C)Cc2ccc(C(=O)Nc3ccccc3N)nc2)cc1F` [Compound 1-13, N-(2-Aminophenyl)-5-[1-(3-dimethylaminopropyl)-3-(3-fluoro-4-methylphenyl)ureidomethyl]pyridine-2-carboxylic acid amide] are 100% and 0.545.
As for `Cc1cc(NC(=O)N(CCCN(C)C)Cc2ccc(C(=O)Nc3ccccc3N)nc2)ccc1F` [Compound 1-14, N-(2-Aminophenyl)-5-[1-(3-dimethylaminopropyl)-3-(4-fluoro-3-methylphenyl)ureidomethyl]pyridine-2-carboxylic acid amide], the “Enzyme Inhibitory Rate (%)” value in assay [1] was found to be 100%. The compound further displayed a CSI in assay [2] of 0.520.
As to `CN(C)CCCN(Cc1ccc(C(=O)Nc2ccccc2N)nc1)C(=O)Nc1ccc(C#N)cc1` [Compound 1-20, N-(2-Aminophenyl)-5-[3-(4-cyanophenyl)-1-(3-dimethylaminopropyl)ureidomethyl]pyridine-2-carboxylic acid amide], the “Enzyme Inhibitory Rate (%)” value in assay [1] was determined as 99%. Moreover, in assay [2], the CSI was found to be 0.516.
In the same order, the values of `CN(C)CCCN(Cc1ccc(C(=O)Nc2ccccc2N)nc1)C(=O)Nc1ccc(OC(F)(F)F)cc1` [Compound 1-21, N-(2-Aminophenyl)-5-[1-(3-dimethylaminopropyl)-3-(4-trifluoromethoxyphenyl)ureidomethyl]pyridine-2-carboxylic acid amide] are 98% and 0.575.
In the same order, the values of `N#Cc1ccc(NC(=O)N(CCCO)Cc2ccc(C(=O)Nc3ccccc3N)nc2)cc1` [Compound 1-24, N-(2-Aminophenyl)-5-[3-(4-cyanophenyl)-1-(3-hydroxypropyl)ureidomethyl]pyridine-2-carboxylic acid amide] are 96% and 0.597.
Consider `Nc1ccccc1NC(=O)c1ccc(CN(CCCO)C(=O)Nc2ccc3c(c2)OCO3)cn1` [Compound 1-25, N-(2-Aminophenyl)-5-[3-(benzo[1,3]dioxol-5-yl)-1-(3-hydroxypropyl)ureidomethyl]pyridine-2-carboxylic acid amide], for which the “Enzyme Inhibitory Rate (%)” value in assay [1] was found to be 97%. The compound also showed a CSI in assay [2] of 0.571.
For the compound `CCOC(=O)CCN(Cc1ccc(C(=O)Nc2ccccc2N)nc1)C(=O)Nc1ccc(N(C)C)cc1` [Compound 1-27, N-(2-Aminophenyl)-5-[3-(4-dimethylaminophenyl)-1-(2-ethoxycarbonylethyl)ureidomethyl]pyridine-2-carboxylic acid amide], the “Enzyme Inhibitory Rate (%)” value in assay [1] worked out at 97%. The compound further yielded a CSI in assay [2] of 0.624.
In the same order, the values of `CN(C)CCCN(Cc1ccc(C(=O)Nc2ccccc2N)nc1)C(=O)Nc1nc2ccccc2s1` [Compound 1-30, N-(2-Aminophenyl)-5-[3-(1,3-benzothiazol-2-yl)-1-(3-dimethylaminopropyl)ureidomethyl]pyridine-2-carboxylic acid amide] are 100% and 0.564.
The corresponding values for `CN(C)CCCN(Cc1ccc(C(=O)Nc2ccccc2N)nc1)C(=O)Nc1nc2ccccc2[nH]1` [Compound 1-31, N-(2-Aminophenyl)-5-[3-(1H-benzimidazol-2-yl)-1-(3-dimethylaminopropyl)ureidomethyl]pyridine-2-carboxylic acid amide] are 99% and 0.551.
In assay [2], `C[C@@H](N)[C@H]1CC[C@H](C(=O)Nc2ccncc2)CC1` [Compound Y-27632, reference compound] displayed a CSI of 0.543.
